# Data as given in patent publication US20150209794A1, “MODIFIED MICRONIZATION DEVICE AND METHOD THEREOF” (OEKOMINERAL AG, priority 2014, published 2015).
# Experiment: Amorphous content / crystalline disorder by isothermal calorimetry (IC TAM 3)
# Format: physicochemical
# Conditions: ursolic acid, five repeated micronization procedures
# Experimental: 1 kg of each sample of ursolic acid (98% purity, Sigma Aldrich) of an average particle size of […] was micronized five times in devices having different hitting elements. The discs were cooled through a feeder opening with liquid nitrogen spraying to avoid overheating of the heat-sensitive substance.
# The micronized samples were analyzed for particle size (Malvern MasterSizer 2000), while the extent of crystalline disorder of particles was quantified with isothermal calorimetry (IC TAM 3, TA instruments, USA). Data was recorded with proprietary software Digitam 4.2.
compound,measurement,setting,value
C[C@H]1[C@H](C)CC[C@]2(C(=O)O)CC[C@]3(C)C(=CC[C@@H]4[C@@]5(C)CC[C@H](O)C(C)(C)[C@@H]5CC[C@]43C)[C@H]12 [ursolic acid],Amorphous Content,MICRONIZATION-1,"3.68 %, w/w"
same,Amorphous Content,MICRONIZATION-2,"6.12 %, w/w"
same,Amorphous Content,MICRONIZATION-3,"19.23 %, w/w"
